This is an account of results in patent US4722931A, “Calcium antagonist” (Laboratorios Delagrange, priority 1984, dated 1988).

The subject of assay [1] is KCl depolarized rat aorta. Briefly: Inhibitory effects on rat aorta contractions induced by KCl (in vitro). It counts as cell-based, Wistar rats. Particulars: for activity relative to compound 7 (IC 50): same test, compared with compound 7. From the text:
Inhibitory effects on rat aorta contractions induced by KCl: […]

Another assay concerns SHR rats. Briefly: Antihypertensive efficacy in SHR rats (systolic blood pressure, tail cuff). It counts as in vivo, spontaneously hypertensive rats (SHR). Particulars: for maximum decrease of blood pressure, mm Hg / inhibition in vivo at 8 mg/kg: n = 5; for inhibition in vivo at 8 mg/kg: Rattus norvegicus, po, Table 2, read-out: maximum decrease of blood pressure, %; for in vivo antihypertensive activity, in words: p.os. The protocol: The systolic blood pressure was measured on the tail of conscious, spontaneously hypertensive rats (SHR), by means of an inflatable rubber cuff and a Digital Pressure meter LE 5000 (Letica Instruments, Barcelone, Spain). Measurements were carried out before administration of the substance, as well as 30 minutes, 1 h, 2, 6, and 24 hours afterwards, respectively. The animals were kept in pre-warmed plastic cylinders during the measurements. The rats with a blood pressure lesser than 160 mm. Hg were discarded. Each compound was tested in 5 animals. Compounds of this invention, or nitrendipine which was used as positive control were given orally in the form of suspensions in 5% acacia gum.

Where [2] appears, read: KCl 80 mM depolarized rat aorta, Table 1, read-out: IC × 10^-8.
Where [3] appears, read: rat aorta contractions induced by KCl 80 mM, read-out: IC 50.
Where [4] appears, read: rat aorta contractions induced by KCl 80 mM.

Counter-ions that a name gives are not always drawn. Like-named read-outs stand apart in the source and are kept apart here. Some results are limits rather than exact numbers.

As for `COCCOC(=O)C1=C(C)NC(C)=C(C(=O)OCCOC)C1c1cccc2c1OCO2` [Compound 16, 1,4-dihydro-2,6-dimethyl-4-(2',3'-methylenedioxyphenyl)-3,5-pyridinedicarboxylic acid, dimethoxyethyl ester], the IC50 in assay [1] (setting [2]) is greater than 100 nM.
On to `CCOC(=O)C1=C(C)NC(C)=C(C(=O)OC)C1c1cccc([N+](=O)[O-])c1` (stereo not drawn) [nitrendipine, reference compound], for which, in the assay with SHR rats (8 mg./kg. p.os), the “maximum decrease of blood pressure, mm Hg” value (“maximum decrease” below) is 54 mm Hg and the inhibition in vivo at 8 mg/kg turned out to be 26.3%.
With `COC(=O)C1=C(C)NC(C)=C(C(=O)OC(C)C)C1c1cccc2c1OCO2` (stereo not drawn) [Compound 13, 1,4-dihydro-2,6-dimethyl-4-(2',3'-methylenedioxyphenyl)-3,5-pyridinedicarboxylic acid, methyl isopropyl ester], the IC50 in assay [1] (setting [2]) stood at 34 nM. Besides, in the assay on SHR rats (8 mg./kg. p.os), the “maximum decrease” value came to 10 mm Hg and the inhibition in vivo at 8 mg/kg was found to be 5.2%.
With `COC(=O)C1=C(C)NC(C)=C(C(=O)OCC(C)C)C1c1cccc2c1OCO2` (stereo not drawn) [Compound 10, 1,4-dihydro-2,6-dimethyl-4-(2',3'-methylenedioxyphenyl)-3,5-pyridinedicarboxylic acid, methyl isobutyl ester], the IC50 in assay [1] (setting [2]) amounted to 12 nM. In addition, in the assay on SHR rats (8 mg./kg. p.os), the “maximum decrease” value was 48 mm Hg and the inhibition in vivo at 8 mg/kg came to 23.5%. For the same compound, in the assay on SHR rats (SHR rats), the “in vivo antihypertensive activity, in words” value is given as “also active in vivo”.
On to `COCCOC(=O)C1=C(C)NC(C)=C(C(=O)OC(C)C)C1c1cccc2c1OCO2` (stereo not drawn) [Compound 11, 1,4-dihydro-2,6-dimethyl-4-(2',3'-methylenedioxyphenyl)-3,5-pyridinedicarboxylic acid, isopropyl methoxyethyl ester], for which the IC50 in assay [1] (setting [2]) stood at 91 nM.
The same measure, in the same setting: as for `CCOC(=O)C1=C(C)NC(C)=C(C(=O)OCC)C1c1cccc2c1OCO2` [Compound 14, 1,4-dihydro-2,6-dimethyl-4-(2',3'-methylenedioxyphenyl)-3,5-pyridinedicarboxylic acid, diethyl ester], the figure is greater than 100 nM.
As for `COC(=O)C1=C(C)NC(C)=C(C(=O)OC)C1c1ccccc1[N+](=O)[O-]` [Nifedipine, nifedipine, reference compound], the IC50 is 7.1 nM in assay [1] (setting [2]) and 7.5 nM in assay [1] (setting [3]). The “activity relative to compound 7 (IC 50)” value in assay [1] is “about two times less active than compound 7”.
With `COC(=O)C1=C(C)NC(C)=C(C(=O)OC)C1c1cccc2c1OCO2` [Compound 9, 1,4-dihydro-2,6-dimethyl-4-(2',3'-methylenedioxyphenyl)-3,5-pyridinedicarboxylic acid, dimethyl ester], the IC50 in assay [1] (setting [2]) stood at 83 nM.
On to `CCOC(=O)C1=C(C)NC(C)=C(C(=O)OC)C1c1ccccc1OCOC` (stereo not drawn) [Compound 6, 1,4-dihydro-2,6-dimethyl-4-(2'-methoxymethoxy-phenyl)-3,5-pyridinedicarboxylic acid, ethyl methyl ester], for which the IC50 in assay [1] (setting [2]) stood at 12 nM. In the assay with SHR rats (8 mg./kg. p.os), the “maximum decrease” value is on record as 34 mm Hg and the inhibition in vivo at 8 mg/kg was found to be 15.2%. For the same compound, the “in vivo antihypertensive activity, in words” value in the assay with SHR rats (SHR rats) is “also active in vivo”.
In the case of `CCOC(=O)C1=C(C)NC(C)=C(C(=O)OC)C1c1ccc(OC)c(OC)c1` (stereo not drawn) [Compound 2, 1,4-dihydro-2,6-dimethyl-4-(3',4'-dimethoxyphenyl)-3,5-pyridinedicarboxylic acid, methyl ethyl ester], in assay [1] (setting [2]), the IC50 was greater than 100 nM. Also, the “in vitro activity, in words” value in assay [1] (setting [4]) is on record as “little or no activity”.
In the case of `CCOC(=O)C1=C(C)NC(C)=C(C(=O)OC)C1c1cc(OC)c(O)c(OC)c1` (stereo not drawn) [Compound 3, 1,4-dihydro-2,6-dimethyl-4-(3',5'-dimethoxy-4'-hydroxyphenyl)-3,5-pyridinedicarboxylic acid, methyl ethyl ester], the IC50 in assay [1] (setting [2]) was greater than 100 nM. The “in vitro activity, in words” value in assay [1] (setting [4]) is “little or no activity”.
`CC1=C(C(=O)OC(C)C)C(c2cccc3c2OCO3)C(C(=O)OC(C)C)=C(C)N1` [Compound 12, 1,4-dihydro-2,6-dimethyl-4-(2',3'-methylenedioxyphenyl)-3,5-pyridinedicarboxylic acid, diisopropyl ester]: the IC50 in assay [1] (setting [2]) is greater than 100 nM.
Consider `CCOC(=O)C1=C(C)NC(C)=C(C(=O)OC)C1c1cccc2c1OCO2` (stereo not drawn) [Compound 7, 1,4-dihydro-2,6-dimethyl-4-(2',3'-methylenedioxyphenyl)-3,5-pyridinedicarboxylic acid, ethyl methyl ester], for which the IC50 stood at 3.1 nM in assay [1] (setting [2]) and 3.5 nM in assay [1] (setting [3]). Moreover, the “in vitro activity, in words” value in assay [1] (setting [4]) is given as “the most active within the series of methyl ethyl ester derivatives”; in assay [1] (rat aorta contractions induced by KCl 80 mM, listed as IQB-837 V), “very active”. The “decreasing blood pressure by” value in the assay with SHR rats (8 mg./kg. p.os, SHR rats) is 30%. In the assay with SHR rats (8 mg./kg. p.os), the “maximum decrease” value is given as 65 mm Hg. Also, the inhibition in vivo at 8 mg/kg in the assay with SHR rats (8 mg./kg. p.os) is 33%. Also, the “in vivo antihypertensive activity, in words” value is “as active as nitrendipine” in the assay on SHR rats (SHR rats) and “very active” in the assay with SHR rats (SHR rats, listed as IQB-837 V).
For the compound `COC(=O)C1=C(C)NC(C)=C(C(=O)OCc2ccccn2)C1c1cccc2c1OCO2` (stereo not drawn) [Compound 17, 1,4-dihydro-2,6-dimethyl-4-(2',3'-methylenedioxyphenyl)-3,5-pyridinedicarboxylic acid, methyl, 2-pyridylmethyl ester, hydrochloride], the IC50 in assay [1] (setting [2]) is greater than 100 nM.
Regarding `CCOC(=O)C1=C(C)NC(C)=C(C(=O)OC)C1c1cccc2c1OCCO2` (stereo not drawn) [Compound 8, 1,4-dihydro-2,6-dimethyl-4-(2',3'-ethylenedioxyphenyl)-3,5-pyridinedicarboxylic acid, methyl ethyl ester], the IC50 in assay [1] (setting [2]) was 45 nM. For the same compound, the “in vitro activity, in words” value in assay [1] (setting [4]) is given as “rather active in vitro”; in assay [1] (rat aorta contractions induced by KCl 80 mM, listed as IQB-838 V), “very active”. Moreover, the “maximum decrease” value in the assay with SHR rats (8 mg./kg. p.os) is given as 12 mm Hg. Moreover, in the assay on SHR rats (8 mg./kg. p.os), the inhibition in vivo at 8 mg/kg is 7.2%. Further, the “in vivo antihypertensive activity, in words” value in the assay with SHR rats (SHR rats) is “a little antihypertensive effect”; with SHR rats (SHR rats, listed as IQB-838 V), “very active”.
`CCOC(=O)C1=C(C)NC(C)=C(C(=O)OC(C)C)C1c1cccc2c1OCO2` (stereo not drawn) [Compound 15, 1,4-dihydro-2,6-dimethyl-4-(2',3'-methylenedioxyphenyl)-3,5-pyridinedicarboxylic acid, ethyl isopropyl ester]: the IC50 in assay [1] (setting [2]) and in assay [1] (setting [3]) was 2.1 nM each time. For the same compound, in assay [1], the “activity relative to compound 7 (IC 50)” value is “as active as compound 7”. Also, the “maximum decrease” value in the assay on SHR rats (8 mg./kg. p.os) amounted to 62 mm Hg. The inhibition in vivo at 8 mg/kg with SHR rats (8 mg./kg. p.os) amounted to 32.4%. In addition, in the assay on SHR rats (SHR rats), the “in vivo antihypertensive activity, in words” value is recorded as “also active in vivo”.
Turning to `CCOC(=O)C1=C(C)NC(C)=C(C(=O)OC)C1c1cc(OC)c(OC)c(OC)c1` (stereo not drawn) [Compound 1, 1,4-dihydro-2,6-dimethyl-4-(3',4',5'-trimethoxyphenyl)-3,5-pyridinedicarboxylic acid, methyl ethyl ester], the IC50 in assay [1] (setting [2]) was greater than 100 nM. Also, the “in vitro activity, in words” value in assay [1] (setting [4]) is given as “little or no activity”. Besides, in the assay on SHR rats (8 mg./kg. p.os), the “maximum decrease” value is 9.8 mm Hg and the inhibition in vivo at 8 mg/kg is 5%.
With `CCOC(=O)C1=C(C)NC(C)=C(C(=O)OC)C1c1cccc(OC)c1OC` (stereo not drawn) [Compound 4, 1,4-dihydro-2,6-dimethyl-4-(2',3'-dimethoxyphenyl)-3,5-pyridinedicarboxylic acid, ethyl methyl ester], the IC50 in assay [1] (setting [2]) is greater than 100 nM.
Same read-out and setting: in the case of `CCOC(=O)C1=C(C)NC(C)=C(C(=O)OC)C1c1cc(OC)cc(OC)c1` (stereo not drawn) [Compound 5, 1,4-dihydro-2,6-dimethyl-4-(3',5'-dimethoxyphenyl)-3,5-pyridinedicarboxylic acid, ethyl methyl ester] it was 92 nM.
